Laboratory results published in ChEMBL document CHEMBL3259532, “Elucidation of different inhibition mechanism of small chemicals on PtdInsP-binding domains using in silico docking experiments” (Bioorg Med Chem Lett, 2014).

How the values were obtained:
[1] = molecular target: T1, Cytohesin-3 (Homo sapiens) (UniProt O43739); assay: Inhibition of C-terminal 6xHis-tagged Grp1 PH domain (unknown origin) expressed in Escherichia coli BL21(DE3) RIL assessed as inhibition of interaction with PtdIns(3,4,5)P3 at 500 uM after 15 mins by SPR analysis relative to control
T1 sequence (whole entry): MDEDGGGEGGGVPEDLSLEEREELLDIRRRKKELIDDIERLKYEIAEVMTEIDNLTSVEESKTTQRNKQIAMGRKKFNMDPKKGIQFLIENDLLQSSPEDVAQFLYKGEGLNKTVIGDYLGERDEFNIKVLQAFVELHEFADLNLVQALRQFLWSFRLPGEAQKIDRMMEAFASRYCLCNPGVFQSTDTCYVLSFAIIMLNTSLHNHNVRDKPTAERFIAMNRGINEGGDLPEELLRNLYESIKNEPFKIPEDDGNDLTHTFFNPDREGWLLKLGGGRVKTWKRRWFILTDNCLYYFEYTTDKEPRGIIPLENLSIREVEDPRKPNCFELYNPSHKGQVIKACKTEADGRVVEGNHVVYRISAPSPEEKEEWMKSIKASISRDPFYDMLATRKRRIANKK

Epsin-1 (Homo sapiens) = molecular target: T2, Epsin-1 (Homo sapiens) (UniProt Q9Y6I3); assay: Inhibition of C-terminal 6xHis-tagged epsin-1 ENTH domain (unknown origin) expressed in Escherichia coli BL21(DE3) RIL assessed as inhibition of interaction with PtdIns(4,5)P2 at 100 uM after 15 mins by SPR analysis relative to control
T2 sequence (whole entry): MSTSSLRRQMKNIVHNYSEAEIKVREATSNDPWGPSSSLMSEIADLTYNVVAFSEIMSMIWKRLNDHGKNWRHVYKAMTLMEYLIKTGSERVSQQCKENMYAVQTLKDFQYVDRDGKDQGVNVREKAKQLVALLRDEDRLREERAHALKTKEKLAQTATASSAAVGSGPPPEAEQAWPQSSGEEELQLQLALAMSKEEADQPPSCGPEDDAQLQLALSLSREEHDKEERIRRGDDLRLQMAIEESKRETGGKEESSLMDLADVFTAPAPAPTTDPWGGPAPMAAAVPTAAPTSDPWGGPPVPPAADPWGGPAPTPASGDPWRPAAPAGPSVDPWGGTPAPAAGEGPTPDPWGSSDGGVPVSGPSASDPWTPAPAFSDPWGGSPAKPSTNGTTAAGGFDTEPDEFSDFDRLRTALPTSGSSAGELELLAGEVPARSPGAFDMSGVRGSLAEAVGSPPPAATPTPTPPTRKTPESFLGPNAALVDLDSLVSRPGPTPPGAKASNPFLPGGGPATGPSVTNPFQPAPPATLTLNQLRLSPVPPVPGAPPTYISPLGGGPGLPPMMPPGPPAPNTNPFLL

Cytohesin-3 = molecular target: T3, Cytohesin-3 (Homo sapiens, UniProt O43739); assay: Inhibition of recombinant C-terminal 6xHis-tagged Grp1 PH domain (unknown origin) expressed in Escherichia coli BL21(DE3) RIL assessed as inhibition of interaction with PtdIns(3,4,5)P3 after 15 mins by SPR analysis
T3 sequence (O43739 whole entry): T1 sequence (whole entry)

Row | Structure (SMILES) | inhibition [1] [%] | inhibition (Epsin-1 (Homo sapiens)) [%] | IC50 (Cytohesin-3) [µM]
1 | O=C1[C@@H]2C[C@@H]3CC[C@@]2(O3)[C@@H](P(=O)(O)O)N1Cc1ccccc1 | 0 | 13 | 
2 | CCOP(=O)(O)c1cc(C(=O)O)[nH]n1 | 36 | 57 | 
3 | CC1(C(=O)O)CC([PH](=O)O)=NN1 (stereo unspecified) | 63 | 8 | 
4 | COP(=O)(O)C1=NNC(C)(C(=O)O)C1 (stereo unspecified) | 48 | 8.3 | 
5 | O=C(O)c1cc(P(=O)(O)O)n[nH]1 | 77 | 61 | 38
